Reference: patent US9163060B2, “Tubulin inhibitors” (R&D BIOPHARMACEUTICALS GMBH, priority 2009, dated 2015)

System: HT-29
Test: fluorometric resazurin-based anti-proliferative assay, HT-29
Settings: Homo sapiens, HT-29 cancer cell line
Protocol: Determination of the IC-50 Concentration Against Various Cancer Cell Lines
The anti-proliferative activity of some representative example compounds of the present invention was determined in-vitro using a fluorometric resazurin-based assay. Cancer cell proliferation and viability was quantified upon reduction of non-fluorescent resazurin into the fluorescent dye resorufin by metabolically active cells as described in Strotmann, U. J., et al., The dehydrogenase assay with resazurin: Practical performance as a monitoring system and pH-dependent toxicity of phenolic compounds. Ecotox. Environ. Safety 25, 79-89, (1993).

Row | SMILES | IC50 [nM]
1 | CCCN(C(=O)C(NC(=O)C1CCCCN1C)[C@@H](C)CC)[C@H](C[C@@H](OC(C)=O)c1nc(C(=O)N[C@@H](Cc2ccccc2)C(=O)O)cs1)C(C)C (stereo partly drawn) | 4.5 ± 0.5
2 | CC[C@H](C)C(NC(=O)C1CCCCN1C)C(=O)N(C)[C@H](C[C@@H](OC(C)=O)c1nc(C(=O)N[C@@H](Cc2ccccc2)C(=O)O)cs1)C(C)C (stereo partly drawn) | 3.2 ± 0.4
3 | CCCN(C(=O)C(NC(=O)C1CCCCN1C)[C@@H](C)CC)[C@H](C[C@@H](OCOC)c1nc(C(=O)N[C@@H](Cc2ccccc2)C(=O)O)cs1)C(C)C (stereo partly drawn) | 51.1 ± 2.6
4 | CCCN(C(=O)C(NC(=O)C1CCCCN1C)[C@@H](C)CC)[C@H](C[C@@H](OC(C)=O)c1nc(C(=O)N[C@@H](Cc2ccc(F)cc2)C(=O)O)cs1)C(C)C (stereo partly drawn) | 1 ± 0.2
5 | CCCO[C@H](C[C@H](C(C)C)N(CCC)C(=O)C(NC(=O)C1CCCCN1C)[C@@H](C)CC)c1nc(C(=O)N[C@@H](Cc2ccc(O)cc2)C(=O)O)cs1 (stereo partly drawn) | 3.1 ± 0.6
6 | CCCN(C(=O)C(NC(=O)C1CCCCN1C)[C@@H](C)CC)[C@H](C[C@@H](OC(C)=O)c1nc(C(=O)N[C@@H](Cc2ccccc2)C(=O)NCCO)cs1)C(C)C (stereo partly drawn) | 3.9 ± 0.7
